These are literature values, as cited in patent publication US20030190360A1, “Chronotherapeutic dosage forms containing glucocorticosteroid and methods of treatment” (priority 2001, published 2003).

The conditions of this data set: equivalent doses of glucocorticoids.
Consider `C[C@]12CCC(=O)C=C1CC[C@@H]1[C@@H]2C(=O)C[C@@]2(C)[C@H]1CC[C@]2(O)C(=O)CO` [Cortisone], for which the “Approximate Equivalent Dose” value was 25 mg.

`C[C@]12CCC(=O)C=C1CC[C@@H]1[C@@H]2[C@@H](O)C[C@@]2(C)[C@H]1CC[C@]2(O)C(=O)CO` [Hydrocortisone]: the “Approximate Equivalent Dose” value is reported as 20 mg.

For the compound `C[C@]12C=CC(=O)C=C1CC[C@@H]1[C@@H]2[C@@H](O)C[C@@]2(C)[C@H]1CC[C@]2(O)C(=O)CO` [Prednisolone], the “Approximate Equivalent Dose” value was 5 mg.

For the compound `C[C@]12C=CC(=O)C=C1CC[C@H]1[C@@H]3C[C@@H](O)[C@](O)(C(=O)CO)[C@@]3(C)C[C@H](O)[C@@]12F` [Triamcinolone], the “Approximate Equivalent Dose” value was 4 mg.
